Test results from publication PMC12851007 (Angewandte Chemie (International Ed. in English), 2025).
Like-named read-outs stand apart in the source and are kept apart here. Where a SMILES comes first, the peptide text is derived from it.

Test: CX4/LCG supramolecular tandem membrane assay, POPC vesicles
Format: in vitro ADME
Conditions: n = 1; for Y30µM, membrane activity, CX4/LCG assay: 30 µM peptide, 25 µM POPC⸧CX4/LCG-LUVs (inside 700 µM CX4, 500 µM LCG) in 10 mM Hepes, pH 7.0, 25 °C, fluorescence λexc 369/λem 502 nm, peptide at 60 s, TX-100/protamine at 600 s, fractional activity; for EC50: pH 7.5, error = SD of fit
Experimental: Membrane Activity M easurements
Vesicle preparation. 100 µ L of a solution of 25 mg/ml of POPC in chloroform or 200 µ L of a solution of 25 mg/ml of EYPC in chloroform was purged with nitrogen and dried overnight under hi gh vacuum. The thin lipid film was rehydrated with 1 ml reh ydrati on buffer (= inside buffer, see Tabl e S2 ) b y agitation at room temperature for 30min and then subjected to 2 0 freeze- th aw c ycles (freezing in liquid nitro gen and thawing at 40 °C). […]
Ta b l e S 2. Combinations of lipids and inside and outside buffer for CX4/LCG -LUVs.
No. Lipid Inside buffer = rehydration buffer Outside buffer
(4) POPC 10 mM Hepes, 700 µM CX4, 500 µM LCG, 10 mM Hepes buffer, 175 mM glucose, pH 7.5 [a] 175 mM glucose, pH 7.5 [a]
[a] Glucose b uffers (183 mOsm/L at 25 °C) were used within one week after preparation.
Vesicle quality control. T o ensure the absence of the CX4/ LCG reporter pair in the ex travesicular ph ase, 20 µL of the collected liposome fr action w as diluted to 2 ml with outside buffer and the fluor escen ce (λ exc = 369 nm; λ em = 502 nm) was recorded during the addition of […]
The final lipid content in the liposome suspension after p repa rat ion and separ ation was d etermined b y NMR as p reviousl y reported. Assay protocol. An appropriate volume of the liposome stock solutions was diluted to 2m L with outside buffer in a 10 ×10 mm quartz glass cuvette to afford a phospholipid concentration of 25 µM. The cuvette was placed into a thermostatted fluorimeter sample holder at 25.0 °C and gentl y stirred at 300 rpm. Subsequently, the time-dependent change in fluorescence intensity (λ exc = 369 nm; λ em = 502 nm) was record ed during addition of 20 µ L of peptide stock solutions of varying concentrations at 60 s. At 600 s, 20µ L o f a solution containing 1.6% (wt/vol) TX-100 and 1.5 mM protamine was added for calibration to affo rd 0.016% (wt/vol) TX-100 and 15 µM protamine final concent rations.
Time-dep endent fluores cence intensit y traces, I (t), were subsequentl y normalized to fractional intensities, If(t), using equation (1). Therein, I 0 is the intensity just before addition of peptide and I ∞ is the constant intensit y after addition of the calibration cockt ail.
IIf (tt ) = II (tt )−II0II∞ − II0 (1)
The concentration-dependent fractional intensities just before the addition of the calibration cocktail, If, were then normalized to fractional membrane activities, Y, using equation (2).
Therein, If,0 is the fractional intensit y just before addition of the calibration cocktail in absence of peptide and I f,∞ is the constant fractional intensity after addition of the calibration cocktail.
YY = IIf − IIf,0IIf,∞ − IIf,0 (2)
The fractional membrane activities, Y, were subsequently plotted against the peptide concentration, c, and analysed using the Hill equation (3) to obtain the effective molar concentration, EC50, and the Hill coefficient, n. Y0 and Y ma x are the fractional membrane activities in absen ce o f p eptide and at max imal peptide concent rations. For peptides with too little activity to determine Y ma x ex perimentall y, Y max was fixed at 1.0 during fitting. […]

[1] = single-channel, 25 µM POPC⸧CX4/LCG-LUVs, inside 10 mM Hepes, 700 µM CX4, 500 µM LCG, 175 mM glucose, outside 10 mM Hepes, 175 mM glucose, read-out: EC50, CX4/LCG assay in glucose-containing buffer
[2] = 25 µM lipid, POPC⊃CX4/LCG-LUVs, 10 mM Hepes, fractional activity at 590 s, Hill fit, read-out: EC50, CX4/LCG assay, POPC

| SMILES | Y30µM, membrane activity, CX4/LCG assay | EC50 [1] [µM] | EC50 [2] [µM] |
| --- | --- | --- | --- |
| CC[C@H](C)[C@H](NC(=O)[C@H](CCCCN)NC(=O)[C@H](CCCCN)NC(=O)[C@H](C)NC(=O)[C@H](CC(C)C)NC(=O)[C@H](C)NC(=O)[C@H](C)NC(=O)[C@H](CC(C)C)NC(=O)[C@H](C)NC(=O)[C@H](CCCCN)NC(=O)[C@H](CC(C)C)NC(=O)[C@H](CC(N)=O)NC(=O)[C@@H](NC(=O)[C@H](CCCCN)NC(=O)CNC(=O)[C@H](CC(C)C)NC(=O)[C@H](CC(C)C)NC(=O)[C@H](Cc1ccc(O)cc1)NC(=O)CNC(=O)[C@H](C)N)[C@@H](C)CC)C(=O)N[C@@H](CC(C)C)C(=O)O [TP10] | 0.88 | 1.7 ± 0.6 | – |
| CC(C)[C@H](NC(=O)[C@H](CCCCN)NC(=O)[C@H](CCCNC(=N)N)NC(=O)[C@H](CCCCN)NC(=O)[C@H](CCCCN)NC(=O)[C@H](CCCCN)NC(=O)[C@@H]1CCCN1C(=O)[C@H](CCC(N)=O)NC(=O)[C@H](CO)NC(=O)[C@H](Cc1c[nH]c2ccccc12)NC(=O)[C@H](CC(=O)O)NC(=O)[C@@H](NC(=O)[C@H](Cc1c[nH]c2ccccc12)NC(=O)[C@H](Cc1c[nH]c2ccccc12)NC(=O)[C@@H](NC(=O)[C@H](CC(=O)O)NC(=O)[C@H](Cc1c[nH]c2ccccc12)NC(=O)[C@H](Cc1c[nH]c2ccccc12)NC(=O)[C@@H](NC(=O)[C@H](CC(=O)O)NC(=O)[C@@H](N)CCCCN)[C@@H](C)O)[C@@H](C)O)[C@@H](C)O)C(=O)O [Pep‐1] (H-KDTWWDTWWTDWSQPKKKRKV-OH) | 0.67 | 4.5 ± 0.7 | 32 ± 14 |
| CC[C@H](C)[C@H](NC(=O)[C@H](CCCCN)NC(=O)[C@@H](NC(=O)[C@@H](N)CCC(N)=O)[C@@H](C)CC)C(=O)N[C@@H](Cc1c[nH]c2ccccc12)C(=O)N[C@@H](Cc1ccccc1)C(=O)N[C@@H](CCC(N)=O)C(=O)N[C@@H](CC(N)=O)C(=O)N[C@@H](CCCNC(=N)N)C(=O)N[C@@H](CCCNC(=N)N)C(=O)N[C@@H](CCSC)C(=O)N[C@@H](CCCCN)C(=O)N[C@@H](Cc1c[nH]c2ccccc12)C(=O)N[C@@H](CCCCN)C(=O)N[C@@H](CCCCN)C(=O)O (H-QIKIWFQNRRMKWKK-OH) | 0.49 | 140 ± 40 | 70 ± 13 |
| CC(C)C[C@H](NC(=O)[C@H](CC(C)C)NC(=O)[C@H](CCCNC(=N)N)NC(=O)[C@@H](N)CC(C)C)C(=O)N[C@@H](CCCNC(=N)N)C(=O)N[C@@H](Cc1c[nH]c2ccccc12)C(N)=O [LRLLRW] (H-LRLLRW-NH2) | 0.53 | 14 ± 2 | – |
